Data taken from the SangsterLogP compilation.

SMILES | logP
CCCCCCC(CCCCC)c1ccccc1 (stereo not drawn) | 8.01
CCCCCCCCCCC(CCC)c1ccccc1 (stereo not drawn) | 9.25
CCCCCCCC(CC)c1ccccc1 (stereo not drawn) | 7
CCCCCCCCCCC(CC)c1ccccc1 (stereo not drawn) | 8.65
CCCCCCCCCC(CC)c1ccccc1 (stereo not drawn) | 8.1
CCCCCCCC(CCCC)c1ccccc1 (stereo not drawn) | 8.01
CCCCCCCCCCCc1ccccc1 | 8.14
CCCCCCCCC(CCCCC)c1ccccc1 (stereo not drawn) | 9.16
CCCCCCCCCC(CCCC)c1ccccc1 (stereo not drawn) | 9.16
CCCCCCC(CCC)c1ccccc1 (stereo not drawn) | 7
CCCCCCCCC(CCCC)c1ccccc1 (stereo not drawn) | 8.56
CCCCCCCC(CCCCC)c1ccccc1 (stereo not drawn) | 8.56
CCCCCCCCCCCC(C)c1ccccc1 (stereo not drawn) | 8.77
CCCCCCCCCC(C)c1ccccc1 (stereo not drawn) | 7.63
CCCCCC(CCCC)c1ccccc1 (stereo not drawn) | 6.9
CCCCCCCC(CCC)c1ccccc1 (stereo not drawn) | 7.59
CCCCCCCCCCC(C)c1ccccc1 (stereo not drawn) | 8.19
CCCCCCCCCC(CCC)c1ccccc1 (stereo not drawn) | 8.62
CCCCCCCCC(CC)c1ccccc1 (stereo not drawn) | 7.53
CCCCCCCCC(C)c1ccccc1 (stereo not drawn) | 7.06
CCCCCC(CCCCC)c1ccccc1 | 7.45
CCCCCCCCC(CCC)c1ccccc1 (stereo not drawn) | 8.07
CCCCCCCCCCCCC(C)c1ccccc1 (stereo not drawn) | 9.29
CCCCCCCCCCCCCc1ccccc1 | 9.36
CCCCCCCCCCCCc1ccccc1 | 8.65
CCCCCCCCCCCCCCc1ccccc1 | 9.95
CCCCCCCCCCCC(CC)c1ccccc1 (stereo not drawn) | 9.29
CCCCCCC(CCCC)c1ccccc1 (stereo not drawn) | 7.45
